The series is described as follows: mn = molality of the nth substance listed, in mol/kg. As to conditions: 100 kPa, Liquid, Capillary tube (Ostwald / Ubbelohde) method.

The record followed here is the NIST ThermoML archive (doi:10.1021/acs.jced.7b00937).

The structures appear in SMILES notation. Numbers after ± are expanded uncertainties.

In general, viscosity refers to the internal friction of a fluid under shear. On to `Cc1ncc(CO)c(CO)c1O.Cl` [5-hydroxy-6-methyl-3,4-pyridinedimethanol hydrochloride] + O, for which the viscosity is, setting by setting: (288.15 K, m1 = 0.05) 1.16 ± 0.021 mPa·s; (288.15 K, m1 = 0.15) 1.209 ± 0.021 mPa·s; (288.15 K, m1 = 0.25) 1.256 ± 0.021 mPa·s; (288.15 K, m1 = 0.35) 1.304 ± 0.021 mPa·s; (298.15 K, m1 = 0.05) 0.912 ± 0.021 mPa·s; (298.15 K, m1 = 0.15) 0.944 ± 0.021 mPa·s. Further, the viscosity is, setting by setting: (298.15 K, m1 = 0.25) 0.982 ± 0.021 mPa·s; (298.15 K, m1 = 0.35) 1.019 ± 0.021 mPa·s; (308.15 K, m1 = 0.05) 0.736 ± 0.02 mPa·s; (308.15 K, m1 = 0.15) 0.761 ± 0.021 mPa·s; (308.15 K, m1 = 0.25) 0.791 ± 0.021 mPa·s; (308.15 K, m1 = 0.35) 0.82 ± 0.021 mPa·s. Besides, the viscosity turned out to be 0.607 ± 0.02 mPa·s (318.15 K, m1 = 0.05); 0.634 ± 0.02 mPa·s (318.15 K, m1 = 0.15); 0.656 ± 0.02 mPa·s (318.15 K, m1 = 0.25); 0.68 ± 0.02 mPa·s (318.15 K, m1 = 0.35).
Regarding `Cc1ncc(C[n+]2csc(CCO)c2C)c(N)n1.Cl.[Cl-]` [thiamine hydrochloride] + O, the viscosity (288.15 K, m1 = 0.05) worked out at 1.179 ± 0.021 mPa·s; the viscosity (288.15 K, m1 = 0.15) is 1.27 ± 0.021 mPa·s; the viscosity (288.15 K, m1 = 0.25) is 1.368 ± 0.021 mPa·s; the viscosity (288.15 K, m1 = 0.35) stood at 1.473 ± 0.022 mPa·s; the viscosity (298.15 K, m1 = 0.05) stood at 0.917 ± 0.021 mPa·s; the viscosity (298.15 K, m1 = 0.15) came out at 0.986 ± 0.021 mPa·s. Further, the viscosity by setting is: (298.15 K, m1 = 0.25) 1.059 ± 0.021 mPa·s; (298.15 K, m1 = 0.35) 1.146 ± 0.021 mPa·s; (308.15 K, m1 = 0.05) 0.748 ± 0.021 mPa·s; (308.15 K, m1 = 0.15) 0.803 ± 0.021 mPa·s; (308.15 K, m1 = 0.25) 0.851 ± 0.021 mPa·s; (308.15 K, m1 = 0.35) 0.91 ± 0.021 mPa·s. For the same molecule, the viscosity reads like this: (318.15 K, m1 = 0.05) 0.615 ± 0.02 mPa·s; (318.15 K, m1 = 0.15) 0.658 ± 0.02 mPa·s; (318.15 K, m1 = 0.25) 0.703 ± 0.02 mPa·s; (318.15 K, m1 = 0.35) 0.749 ± 0.021 mPa·s.
